This is an account of results in patent US20090215778A1, “Alpha-substituted Arylmethyl Piperazine Pyrazolo [1,5-alpha]Pyrimidine Amide Derivatives” (priority 2007, published 2009).

The structures appear in SMILES notation. pIC50: −log10 of the molar value. Where two headings read alike, the source gives them in different places.

The target in assay [1] is T1, HIV Env six-helix bundle (6HB) structure (Human immunodeficiency virus type 1 group M subtype B, UniProt P04579).
T1 construct: H9 cells chronically infected with HIV-1 (H9/HIV-1RF); endogenous in cells; host or cells: H9 cells chronically infected with HIV-1 strain RF (Env is made from the virus in the infected cells, not by transfection)
The assay is described as follows: Six-helix bundle (6HB) assay. It is filed as cell-based, HIV-1 (strain RF). As to the method:
3×10^6H9 cells were incubated with 1 mL of HIV-1 (strain RF) supplemented with 40 μg/mL of DEAE-dextran. Virus and cells were incubated together at 37° C. for 2-4 hours with sporadic shaking to resuspend cells. 10 mL of media (RPMI 1640 containing 10% fetal bovine serum and supplemented with 50 μg/mL gentamicin) was then added and the virus-cell coculture was incubated at 37° C. in a humidified 5% CO2 incubator. 3 days post-infection and every 2-3 days thereafter, the infected H9/HIV-1RF cells were centrifuged, the supernatant was removed, and the cells were resuspended at a density of 0.3×10^6 cells/mL in media (RPMI 1640 containing 10% fetal bovine serum and supplemented with 50 μg/mL gentamicin). Chronically infected H9/HIV-1RF cells were used in experiments starting 12-15 days after infection and up to 40 days post-infection.
This assay determines the effect of compounds on conformational changes in HIV envelope glycoprotein (Env) that are required in order for Env to mediate the fusion of the viral and cellular membranes during virus entry and infection. Specifically, this assay measures the effect of compounds on the formation of the HIV Env six-helix bundle (6HB) structure.
H9 cells chronically infected with HIV-1 (H9/HIV-1RF) were resuspended in Stain/Wash Buffer (1% bovine serum albumin, 0.1% sodium azide in phosphate-buffered saline) and aliquoted at 2.5×10^5 cells per well into 96-well V-bottom plates containing various concentrations of test compounds. Cells and compounds were incubated for 30 minutes at 37° C. Recombinant soluble CD4 (sCD4) was then added to a final concentration of 1 μg/mL. Negative control wells contained no sCD4 and no test compound. Positive control wells contained sCD4 but no test compound. The plate was incubated for 1 hour at 37° C. to allow the sCD4 to bind to HIV Env and induce conformational changes in the Env protein. Antibody that is specific for the HIV Env six-helix bundle conformation was then added (1 μL polyclonal rabbit serum per well), and the plate was incubated for an additional 1 hour at 37° C. to permit antibody binding. The cells were then washed once with Stain/Wash Buffer to remove compound and excess antibody. The cells were resuspended in Stain/Wash Buffer containing PE-labeled anti-rabbit secondary antibody (KPL) at 0.25 μg per well. The cells were incubated for 45 min at 4° C. to permit secondary antibody binding. Fluorescence was detected using a BD FACSArray™ bioanalyzer. Compounds that inhibited Env conformational changes were identified as those that decreased primary antibody binding to the six-helix bundle epitope resulting in a decrease in fluorescence signal.

Assay [2] concerns HIV-1, NL4-3 strain. The assay can be described thus: Virus infection assay (virus entry and single-cycle infection). It is filed as cell-based. The note with it: Human immunodeficiency virus 1, NL43, TZM-b1, read-out: Nl4. Here is the method:
TZM-b1 indicator cells were propagated in Dulbecco's Modified Eagle's Medium (DMEM) containing 10% fetal bovine serum (FBS, heat-inactivated) and supplemented with gentamicin (50 ug/mL).
This assay determines the effects of compounds on virus entry and single-cycle infection of cells. In this assay, virus (HIV-1, NL4-3 strain) is added to indicator cells expressing the CD4 receptor and both the CXCR4 and CCR5 co-receptor. The cells contain both a lac Z and a luciferase reporter gene under control of the viral LTR transcription promoter. The cells and virus are incubated together in the presence of various concentrations of test compounds. Successful infection of the cells by the virus permits activation of the reporter gene by the viral Tat transcription factor. The resulting beta-galactosidase or luciferase activity is quantitated using a chemiluminescent substrate and a luminescent plate reader.
Specifically, one day prior to infection, 1.5×10^4 TZM-b1 indicator cells were added to each well of a 96-well microtiter plate. On the day of the experiment, virus (MOI 0.01) in 50 μL of medium (Dulbecco's Modified Eagle's Medium) supplemented with DEAE-dextran at a final concentration of 80 μg/mL was added to cells along with various concentrations of test compound in 50 μL of Dulbecco's Modified Eagle's Medium. Control wells had virus alone. Following a 4 hr incubation at 37° C., complete media [DMEM supplemented with 10% fetal bovine serum (FBS, heat-inactivated) and gentamicin (50 ug/mL)] was added. One day post-infection the level of virus infection was quantitated by detection of β-galactosidase expression using the Gal-Screen system (Applied Biosystems).

T1 sequence (P04579 32-519): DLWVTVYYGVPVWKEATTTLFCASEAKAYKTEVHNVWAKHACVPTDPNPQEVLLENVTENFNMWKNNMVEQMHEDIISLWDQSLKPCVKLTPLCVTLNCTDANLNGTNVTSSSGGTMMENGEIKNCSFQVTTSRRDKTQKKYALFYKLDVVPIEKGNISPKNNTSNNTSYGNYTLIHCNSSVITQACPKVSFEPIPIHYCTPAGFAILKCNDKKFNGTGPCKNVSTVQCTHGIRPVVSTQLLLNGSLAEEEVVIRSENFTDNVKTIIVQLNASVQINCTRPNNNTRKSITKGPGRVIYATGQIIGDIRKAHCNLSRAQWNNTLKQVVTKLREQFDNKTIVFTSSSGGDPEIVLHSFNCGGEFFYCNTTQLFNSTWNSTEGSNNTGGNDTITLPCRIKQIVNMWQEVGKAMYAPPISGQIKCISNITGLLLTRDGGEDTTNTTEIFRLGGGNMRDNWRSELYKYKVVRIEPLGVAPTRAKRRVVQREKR
T1 sequence (P04579 520-865): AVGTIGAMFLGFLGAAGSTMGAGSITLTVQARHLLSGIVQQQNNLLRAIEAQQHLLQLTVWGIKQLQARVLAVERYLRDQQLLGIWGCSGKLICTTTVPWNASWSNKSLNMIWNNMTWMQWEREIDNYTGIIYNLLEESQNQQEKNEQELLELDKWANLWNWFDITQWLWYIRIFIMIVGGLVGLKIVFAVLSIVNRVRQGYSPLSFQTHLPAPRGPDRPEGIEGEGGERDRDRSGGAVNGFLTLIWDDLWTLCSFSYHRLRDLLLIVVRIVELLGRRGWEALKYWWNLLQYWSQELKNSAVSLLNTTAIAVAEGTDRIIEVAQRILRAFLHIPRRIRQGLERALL

For `COc1ccc(-c2nc3c(C(=O)N4CCN(C(CO)c5cccnc5Cl)C[C@H]4C)cnn3c(C(F)(F)F)c2C)cc1` (stereo partly drawn) [methanone, [(2R)-4-[1-(2-chloro-3-pyridinyl)-2-hydroxyethyl]-2-methyl-1-piperazinyl][5-(4-methoxyphenyl)-6-methyl-7-(trifluoromethyl)pyrazolo[1,5-α]pyrimidin-3-yl]-], the pIC50 in assay [1] and in assay [2] was above 6.00 in each case.

For the compound `COc1ccc(-c2nc3c(C(=O)N4CCN(C(CO)c5c(F)ccc(F)c5F)C[C@H]4C)cnn3c(C(F)(F)F)c2C)cc1` (stereo partly drawn) [methanone, [(2R)-4-[2-hydroxy-1-(2,3,6-trifluorophenyl)ethyl]-2-methyl-1-piperazinyl][5-(4-methoxyphenyl)-6-methyl-7-(trifluoromethyl)pyrazolo[1,5-α]pyrimidin-3-yl]-], the pIC50 in assay [1] and in assay [2] was above 6.00 each time.

As to `COc1ccc(-c2nc3c(C(=O)N4CCN(C(CO)c5ccccc5C(F)(F)F)C[C@H]4C)cnn3c(C(F)(F)F)c2C)cc1` (stereo partly drawn) [methanone, [(2R)-4-[2-hydroxy-1-[2-(trifluoromethyl)phenyl]ethyl]-2-methyl-1-piperazinyl][5-(4-methoxyphenyl)-6-methyl-7-(trifluoromethyl)pyrazolo[1,5-α]pyrimidin-3-yl]-], the pIC50 in assay [1] and in assay [2] was above 6.00 in each case.

In the case of `COc1ccc(-c2nc3c(C(=O)N4CCN(C(c5ccccc5)C(C)O)C[C@H]4C)cnn3c(C(F)(F)F)c2C)cc1` (stereo partly drawn) [methanone, [(2R)-4-(2-hydroxy-1-phenylpropyl)-2-methyl-1-piperazinyl][5-(4-methoxyphenyl)-6-methyl-7-(trifluoromethyl)pyrazolo[1,5-α]pyrimidin-3-yl]-], the pIC50 in assay [1] and in assay [2] was above 6.00 throughout.

Regarding `COc1ccc(-c2nc3c(C(=O)N4CCN([C@H](CO)c5cc(C)cs5)C[C@H]4C)cnn3c(C(F)(F)F)c2C)cc1` [methanone, [(2R)-4-[(1R)-2-hydroxy-1-(4-methyl-2-thienyl)ethyl]-2-methyl-1-piperazinyl][5-(4-methoxyphenyl)-6-methyl-7-(trifluoromethyl)pyrazolo[1,5-α]pyrimidin-3-yl]-], the pIC50 in assay [1] and in assay [2] was above 6.00 throughout.

As to `COc1ccc(-c2nc3c(C(=O)N4CCN([C@H](C)c5cc(F)cc(F)c5)C[C@H]4C)cnn3c(C(F)(F)F)c2C)cc1` [methanone, [(2R)-4-[(1R)-1-(3,5-difluorophenyl)ethyl]-2-methyl-1-piperazinyl][5-(4-methoxyphenyl)-6-methyl-7-(trifluoromethyl)pyrazolo[1,5-α]pyrimidin-3-yl]-], the pIC50 in assay [1] and in assay [2] was above 6.00 in each case.

Turning to `COc1ccc(-c2nc3c(C(=O)N4CCN(C(CO)c5cccc(C(C)=O)c5)C[C@H]4C)cnn3c(C(F)(F)F)c2C)cc1` (stereo partly drawn) [ethanone, 1-[3-[2-hydroxy-1-[(3R)-4-[[5-(4-methoxyphenyl)-6-methyl-7-(trifluoromethyl)pyrazolo[1,5-α]pyrimidin-3-yl]carbonyl]-3-methyl-1-piperazinyl]ethyl]phenyl]-], the pIC50 in assay [1] and in assay [2] was above 6.00 throughout.

In the case of `Cc1c(-c2ccc(C3CC3)cc2)nc2c(C(=O)N3CCN([C@@H](CO)c4ccccc4)C[C@H]3C)cnn2c1C(F)(F)F` [methanone, [5-(4-cyclopropylphenyl)-6-methyl-7-(trifluoromethyl)pyrazolo[1,5-α]pyrimidin-3-yl][(2R)-4-[(1R)-2-hydroxy-1-phenylethyl]-2-methyl-1-piperazinyl]-], the pIC50 in assay [1] and in assay [2] was above 6.00 each time.

Take `COc1ccc(-c2nc3c(C(=O)N4CCN(C(CO)c5cccc(F)c5)C[C@H]4C)cnn3c(C(F)(F)F)c2C)cc1` (stereo partly drawn) [methanone, [(2R)-4-[1-(3-fluorophenyl)-2-hydroxyethyl]-2-methyl-1-piperazinyl][5-(4-methoxyphenyl)-6-methyl-7-(trifluoromethyl)pyrazolo[1,5-α]pyrimidin-3-yl]-]: the pIC50 in assay [1] and in assay [2] was above 6.00 each time.

Consider `C=CCN(C)CC(c1ccccc1)N1CCN(C(=O)c2cnn3c(C(F)(F)F)c(C)c(-c4ccc(OC)cc4)nc23)[C@H](C)C1` (stereo partly drawn) [methanone, [5-(4-methoxyphenyl)-6-methyl-7-(trifluoromethyl)pyrazolo[1,5-α]pyrimidin-3-yl][(2R)-2-methyl-4-[2-(methyl-2-propen-1-ylamino)-1-phenylethyl]-1-piperazinyl]], for which the pIC50 in assay [1] and in assay [2] was above 6.00 each time.

Regarding `COc1ccc(-c2nc3c(C(=O)N4CCN([C@@H](CO)c5ccc(C(C)=O)s5)C[C@H]4C)cnn3c(C(F)(F)F)c2C)cc1` [ethanone, 1-[5-[(1S)-2-hydroxy-1-[(3R)-4-[[5-(4-methoxyphenyl)-6-methyl-7-(trifluoromethyl)pyrazolo[1,5-α]pyrimidin-3-yl]carbonyl]-3-methyl-1-piperazinyl]ethyl]-2-thienyl]-], the pIC50 in assay [1] was above 6.00; in assay [2], 5.00 to 5.96.

`CCC(c1ccccc1)N1CCN(C(=O)c2cnn3c(C(F)(F)F)cc(-c4ccc(OC)cc4)nc23)CC1` (stereo not shown) [methanone, [5-(4-methoxyphenyl)-7-(trifluoromethyl)pyrazolo[1,5-a]pyrimidin-3-yl][4-(1-phenylpropyl)-1-piperazinyl]-]: the pIC50 in assay [1] is 5.00 to 5.96.

With `COc1ccc(-c2cc(C(F)(F)F)n3ncc(C(=O)N4CCN(C(C)c5ccccc5)CC4)c3n2)cc1` (stereo not drawn) [methanone, [5-(4-methoxyphenyl)-7-(trifluoromethyl)pyrazolo[1,5-α]pyrimidin-3-yl][4-(1-phenylethyl)-1-piperazinyl]-], in assay [1], the pIC50 was 5.00 to 5.96.

In turn, `COc1ccc(-c2cc(C(F)(F)F)n3ncc(C(=O)N4CCN(C(c5ccccc5)C(F)(F)F)CC4)c3n2)cc1` (stereo not drawn) [methanone, [5-(4-methoxyphenyl)-7-(trifluoromethyl)pyrazolo[1,5-α]pyrimidin-3-yl][4-(2,2,2-trifluoro-1-phenylethyl)-1-piperazinyl]-] had a pIC50 in assay [1] above 6.00.

On to `COc1ccc(-c2cc(C(F)(F)F)n3ncc(C(=O)N4CCN([C@H](C)c5ccccc5)CC4)c3n2)cc1` [methanone, [5-(4-methoxyphenyl)-7-(trifluoromethyl)pyrazolo[1,5-α]pyrimidin-3-yl][4-(1-phenylethyl)-1-piperazinyl]-], for which the pIC50 in assay [1] is 5.00 to 5.96.

With `COc1ccc(-c2cc(C(F)(F)F)n3ncc(C(=O)N4CCN([C@@H](C)c5ccccc5)CC4)c3n2)cc1` [methanone, [5-(4-methoxyphenyl)-7-(trifluoromethyl)pyrazolo[1,5-α]pyrimidin-3-yl][4-(1-phenylethyl)-1-piperazinyl]-], the pIC50 in assay [1] was 5.00 to 5.96.

For the compound `COc1ccc(-c2nc3c(C(=O)N4CCN([C@@H](CO)c5ccccc5)C[C@H]4C)cnn3c(C(F)(F)F)c2C)cc1` [drawing 44, methanone, [(2R)-4-[(1R)-2-hydroxy-1-phenylethyl]-2-methyl-1-piperazinyl][5-(4-methoxyphenyl)-6-methyl-7-(trifluoromethyl)pyrazolo[1,5-α]pyrimidin-3-yl]-], the pIC50 in assay [1] (read-out: 6HB IC50, H9 cells chronically infected with HIV-1 RF, sCD4-induced six-helix bundle formation) was above 6.00.
